Data taken from patent publication US10519504B2, “Methods for treatment of oncological disorders using epimetabolic shifters, multidimensional intracellular molecules, or environmental influencers” (Berg LLC, priority 2009, dated 2019).

Columns and labels:
[1] = test system: Isocitrate Dehydrogenase-1 (IDH-1); assay: Western blot, IDH1 levels; type: cell-based, human
Description: The whole cell pellets were resuspended one at a time in 1 mL of C7 buffer and transferred to labeled 15 mL tubes. The samples were then sonicated in the cold room on ice using 6 sonic pulses with the setting at #14. The samples were spun for a short time to 2500 g after sonication and the samples transferred to 2 ml tubes. The pH was verified of each sample (pH should be 9.0) using the foam remaining in the […] sample tubes.
Alkylation and reduction of samples was performed for each sample by adding 10 ul of 1M acrylamide, 25 ul of tributylphoshene and incubation for 90 mins with intermittent mixing. After incubation, 10 ul of 1M DTT was added and the tubes were spun at 20,000 g at 20 deg C. for 10 minutes and transferred the supernatant to labeled Amicon Ultra centrifugal filter units with a 10 k cut off (Millipore catalog #UFC 801024). The samples were spun for 15 minutes at 2500 g in 2 intervals. The conductivity was measured for Chaps alone as well as the samples using a conductivity meter. If the conductivity of samples is high, then 1 ml of chaps was added for buffer exchange and spun again at 2500 g until the volume was down to 250 ul. […]
The samples were processed as per standard protocols as described above and the amount of protein in each of the samples was determined by Bradford assay. […]

[2] = test system: Pyruvate Kinase M2 (PKM2); assay: Western blot, Pyruvate Kinase M2 levels; type: cell-based, human; settings: cancer cells tested
Description: The samples were processed and run on a 4-12% Bis-Tris Novex NuPAGE gel as described above. The gels were run, transferred and stained essentially as described above.
The lactate dehydrogenase blots were stripped by incubating for 30 minutes with methanol, followed by two 10 minute washes with TBS-T, then 30 minutes of incubation with Stripping buffer at 50 deg C., and followed by two washes with 100 ml or more of TBS-T for 30′ each. The 2 blots were scanned in laser scanner to check for complete stripping. The blots were activated with methanol for 5 seconds, washed with water for 5 minutes, and TBST for 15 minutes. The blots were blocked for 1 hour with 5% blocking reagent in TBS-T at room temperature and then washed 3 times with TBS-T (1X−15′; 2X5′ each) and probed with the rabbit polyclonal antibody for Pyruvate Kinase M2 in 5% BSA (NOVUS BIOLOGICALS catalog #H00005315-D01P) at 1:500 dilution overnight at 4 deg C. with shaking. After the overnight incubation with primary antibody for Pyruvate Kinase M2, the membranes were washed 3 times with TBS-T (1X−15′; 2X5′ each) and probed with the secondary antibody (antirabbit; 1:10,000 dilution) for 1 h on the orbital tilting shaker at room temperature. […]

## COC1=C(OC)C(=O)C(C/C=C(\C)CC/C=C(\C)CC/C=C(\C)CC/C=C(\C)CC/C=C(\C)CC/C=C(\C)CC/C=C(\C)CC/C=C(\C)CC/C=C(\C)CCC=C(C)C)=C(C)C1=O [Q10, Coenzyme Q10]
[1]; HDFa, nFIB, HASMC
  expression of IDH1: did not demonstrate significant changes in the expression pattern
[1]; cancer cell lines MCF-7, SKMEL28, HepG2, PaCa-2
  expression of IDH1: increased expression of IDH1
[2]
  PKM2 expression: dose-dependent decrease in the PKM2 expression
